Laboratory results reported in patent US9522888B2, “Substituted bicyclic compounds” (BRISTOL-MYERS SQUIBB COMPANY, priority 2014, dated 2016).
pEC50, pIC50: −log10 of the molar value.

Key:
hS1P1/CHO cells = hS1P1/CHO cells (Homo sapiens (Human), UniProt P21453); assay: hS1P1 ERK phosphorylation (S1P1 pERK); type: cell-based; details: phosphate examples
Procedure, shortened: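 Agonism read as ERK phosphorylation (SureFire pERK) in hS1P1/CHO lysates, normalised to the maximal effect of 10 μM S1P. Cells were held 2 h in serum-free medium, then treated with compound for 7 min at 37° C. in HBSS/20 mM HEPES.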

[1] = molecular target: S1P1 (membranes prepared from S1P1/CHO cells) (Homo sapiens (Human), UniProt P21453); assay: Receptor [35S] GTPγS binding assay (S1P1 GTPγS); type: biochemical; details: phosphate examples; read-out: S1P1 GTPγS
Procedure, shortened: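 Agonist-stimulated [35S]GTPγS binding (0.2 nM final) to S1P1/CHO membranes, 3 μg protein/well, measured after 45 min at room temperature. Buffer contained 10 μM GDP, saponin and fatty-acid-free BSA at pH 7.5. Compounds tested as 11-point 3-fold series; bound label captured on filters, scintillation-counted, EC50 reported.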

[2] = molecular target: S1P3 (membranes prepared from EDG3-Gal5-bla HEK293T cells) (Homo sapiens (Human), UniProt Q99500); assay: Receptor [35S] GTPγS binding assay (S1P3 GTPγS); type: biochemical; details: phosphate examples; read-out: S1P3 GTPγS
Procedure, shortened: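 Membranes (3 μg protein/well) from S1P1/CHO cells or EDG3-Gal5-bla HEK293T cells (S1P3) were incubated 45 min at room temperature with 0.2 nM final [35S]GTPγS in HEPES pH 7.5 buffer with 10 μM GDP, MgCl2 and saponin. Bound label counted after filtration; EC50 from 11-point, 3-fold dilutions.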

human S1P1 = human S1P1 (Homo sapiens (Human), UniProt P21453); assay: S1P1 binding assay (33P-S1P radioligand competition, CHO cell membranes); details: phosphate examples; read-out: S1P1 Binding
Procedure, shortened: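 Radioligand is 33P-S1P, competing for membranes from human S1P1-expressing CHO cells. Membranes resuspended in 50 mM HEPES pH 7.5, 100 mM NaCl, 1 mM MgCl2, 2 mM EDTA.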

Chain of hS1P1/CHO cells (P21453 whole entry): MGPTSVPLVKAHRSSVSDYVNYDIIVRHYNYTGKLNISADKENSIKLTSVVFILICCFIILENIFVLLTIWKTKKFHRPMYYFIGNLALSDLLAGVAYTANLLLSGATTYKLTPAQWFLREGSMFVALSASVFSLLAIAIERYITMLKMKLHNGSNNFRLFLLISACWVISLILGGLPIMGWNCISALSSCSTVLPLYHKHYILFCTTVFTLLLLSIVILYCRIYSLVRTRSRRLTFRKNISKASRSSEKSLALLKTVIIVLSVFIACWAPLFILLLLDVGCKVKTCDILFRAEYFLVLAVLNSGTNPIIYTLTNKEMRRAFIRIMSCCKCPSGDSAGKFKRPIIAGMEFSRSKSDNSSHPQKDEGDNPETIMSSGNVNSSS
Chain of human S1P1 (P21453 whole entry): as above
Chain of S1P1 (membranes prepared from S1P1/CHO cells) (P21453 whole entry): as above
Chain of S1P3 (membranes prepared from EDG3-Gal5-bla HEK293T cells) (Q99500 whole entry): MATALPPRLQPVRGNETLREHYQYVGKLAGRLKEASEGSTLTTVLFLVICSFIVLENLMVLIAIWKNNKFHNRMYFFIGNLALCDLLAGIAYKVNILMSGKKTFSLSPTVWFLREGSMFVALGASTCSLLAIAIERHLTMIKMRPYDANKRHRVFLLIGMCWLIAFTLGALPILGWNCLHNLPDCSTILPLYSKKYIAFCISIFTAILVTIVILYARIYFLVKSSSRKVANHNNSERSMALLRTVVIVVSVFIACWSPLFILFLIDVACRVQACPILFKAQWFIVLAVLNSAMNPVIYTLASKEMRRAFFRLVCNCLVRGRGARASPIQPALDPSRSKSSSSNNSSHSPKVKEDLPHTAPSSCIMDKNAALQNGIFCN

SMILES	pEC50 (hS1P1/CHO cells)	pEC50 [1]	pEC50 [2]	pIC50 (human S1P1)
N[C@]1(COP(=O)(O)O)CC[C@H](c2ccc3c(c2)CC[C@@H](COc2cccc(OC(F)(F)F)c2)C3)C1 [compound 497]	> 8.00	> 8.00	< 6.20	7.00 to 8.00
CCCSCC[C@H]1CCc2cc([C@H]3CC[C@](N)(COP(=O)(O)O)C3)ccc2C1 [compound 534]	7.00 to 8.00	> 8.00	< 6.20	> 8.00
COCCCOC[C@@H]1CCc2cc([C@H]3CC[C@](N)(COP(=O)(O)O)C3)ccc2C1 [compound 458]	> 8.00	7.00 to 8.00	< 6.20	> 8.00
CCCCOC[C@@H]1COc2cc([C@@H]3CC[C@](N)(COP(=O)(O)O)C3)ccc2O1 [compound 415]	7.00 to 8.00	7.00 to 8.00	< 6.20	7.00 to 8.00
COCCCCCC[C@H]1CCc2cc(C3CCC(N)(COP(=O)(O)O)C3)ccc2C1 (single isomer, unassigned) [compound 597]	7.00 to 8.00	> 8.00	< 6.20	> 8.00
CCCCCOC[C@@H]1COc2cc([C@H]3CC[C@](N)(COP(=O)(O)O)C3)ccc2O1 [Example 412, ((1R,3S)-1-amino-3-((R)-2-((pentyloxy)methyl)-2,3-dihydrobenzo[b][1,4]dioxin-6-yl)cyclopentyl)methyl dihydrogen phosphate]	> 8.00	> 8.00	< 6.20	> 8.00
CCCC/C=C/[C@@H]1CCc2cc([C@H]3CC[C@](N)(COP(=O)(O)O)C3)ccc2C1 [compound 636]	7.00 to 8.00	7.00 to 8.00	< 6.20	7.00 to 8.00
CCCCCC[C@H]1COc2cc([C@H]3CC[C@](N)(COP(=O)(O)O)C3)ccc2C1 [compound 424]	> 8.00	7.00 to 8.00	< 6.20	7.00 to 8.00
N[C@]1(COP(=O)(O)O)CC[C@H](c2ccc3c(c2)CC[C@H](CS(=O)(=O)c2ccccc2)C3)C1 [compound 618]	> 8.00	6.00 to 7.00	< 6.20	6.00 to 7.00
CCCC[C@@H]1CCCC2(CCc3cc([C@H]4CC[C@](N)(COP(=O)(O)O)C4)ccc3C2)O1 (some centres unmarked) [compound 633]	> 8.00	6.00 to 7.00	< 6.20	7.00 to 8.00
CCCCSC[C@H]1CCc2cc([C@@H]3CC[C@](N)(COP(=O)(O)O)C3)ccc2C1 [compound 505]	7.00 to 8.00	7.00 to 8.00	< 6.20	7.00 to 8.00
CC(C)(C)CCSC[C@@H]1CCc2cc([C@H]3CC[C@](N)(COP(=O)(O)O)C3)ccc2C1 [compound 519]	> 8.00	> 8.00	< 6.20	> 8.00
CCCCCCC1CCc2cc([C@@H]3CC[C@](N)(COP(=O)(O)O)C3)ccc2O1 (some centres unmarked) [compound 420]	5.00 to 6.00	7.00 to 8.00	< 6.20	7.00 to 8.00
CC(C)CCOCCO[C@H]1CCc2cc([C@H]3CC[C@](N)(COP(=O)(O)O)C3)ccc2C1 [compound 587]	> 8.00	7.00 to 8.00	< 6.20	> 8.00
CCCC=CCOC[C@@H]1CCc2cc([C@H]3CC[C@](N)(COP(=O)(O)O)C3)ccc2C1 [compound 462]	> 8.00	> 8.00	< 7.30	> 8.00

Second part, the compound after the results:

pEC50 (hS1P1/CHO cells)	pEC50 [1]	pEC50 [2]	pIC50 (human S1P1)	SMILES
> 8.00	7.00 to 8.00	< 6.20	7.00 to 8.00	COCCCCC[C@H]1CCc2cc([C@@H]3CC[C@@](N)(COP(=O)(O)O)C3)ccc2C1 [compound 598]
7.00 to 8.00	7.00 to 8.00	< 6.20	7.00 to 8.00	COc1cccc(CCC[C@@H]2CCc3cc([C@H]4CC[C@](N)(COP(=O)(O)O)C4)ccc3C2)c1 [compound 564]
> 8.00	6.00 to 7.00	< 6.20	> 8.00	COCC[C@@H]1CCc2cc([C@H]3CC[C@](N)(COP(=O)(O)O)C3)ccc2C1 [compound 540]
7.00 to 8.00	7.00 to 8.00	< 6.20	> 8.00	N[C@]1(COP(=O)(O)O)CC[C@H](c2ccc3c(c2)CC[C@@H](COc2ccc(F)cc2)C3)C1 [compound 449]
7.00 to 8.00	7.00 to 8.00	< 6.20	6.00 to 7.00	CC(C)c1ccc(OC[C@@H]2CCc3cc([C@H]4CC[C@](N)(COP(=O)(O)O)C4)ccc3C2)cc1 [compound 479]
> 8.00	6.00 to 7.00	< 6.20	6.00 to 7.00	COc1ccc(C[C@@H]2CCc3cc([C@H]4CC[C@](N)(COP(=O)(O)O)C4)ccc3C2)cc1OC [compound 553]
> 8.00	> 8.00	< 6.20	> 8.00	COc1ccccc1SC[C@@H]1CCc2cc([C@H]3CC[C@](N)(COP(=O)(O)O)C3)ccc2C1 [compound 527]
> 8.00	6.00 to 7.00	< 6.20	7.00 to 8.00	CCCCOC[C@H]1CCc2cc([C@H]3CC[C@](N)(COP(=O)(O)O)C3)ccc2C1 [compound 446]
7.00 to 8.00	7.00 to 8.00	< 6.20	> 8.00	COc1ccc(CC[C@@H]2CCc3cc(C4CCC(N)(COP(=O)(O)O)C4)ccc3C2)cc1 (single isomer, unassigned) [compound 593]
> 8.00	7.00 to 8.00	< 6.20	7.00 to 8.00	COc1ccc(F)c(CC[C@H]2CCc3cc([C@@H]4CC[C@@](N)(COP(=O)(O)O)C4)ccc3C2)c1 (single isomer, unassigned) [compound 609]
> 8.00	7.00 to 8.00	< 6.20	7.00 to 8.00	COc1cccc(OCC[C@H]2CCc3cc([C@H]4CC[C@](N)(COP(=O)(O)O)C4)ccc3C2)c1 [compound 545]
> 8.00	> 8.00	< 6.20	> 8.00	COc1cccc(COC[C@H]2CCc3cc([C@H]4CC[C@](N)(COP(=O)(O)O)C4)ccc3C2)c1 [compound 481]
6.00 to 7.00	7.00 to 8.00	< 6.20	7.00 to 8.00	COc1ccc(CC[C@H]2CCc3cc([C@@H]4CC[C@@](N)(COP(=O)(O)O)C4)ccc3C2)cc1 [compound 594]
> 8.00	> 8.00	< 6.20	> 8.00	N[C@@]1(COP(=O)(O)O)CC[C@@H](c2ccc3c(c2)CC[C@@H](CCc2ccc4ccccc4n2)C3)C1 [compound 605]
> 8.00	> 8.00	< 6.20	> 8.00	CC(C)SCC[C@@H]1CCc2cc([C@H]3CC[C@](N)(COP(=O)(O)O)C3)ccc2C1 [compound 537]
7.00 to 8.00	7.00 to 8.00	< 6.20	7.00 to 8.00	CC(C)c1cccc(OC[C@@H]2CCc3cc([C@H]4CC[C@](N)(COP(=O)(O)O)C4)ccc3C2)c1 [compound 478]
> 8.00	7.00 to 8.00	< 6.20	> 8.00	CCCCC[C@H]1CCc2cc([C@@H]3CC[C@@](N)(COP(=O)(O)O)C3)ccc2C1 [compound 578]
